Experimental data reported in US20250257053A1, “PESTICIDALLY ACTIVE HETEROCYCLIC DERIVATIVES WITH SULFUR CONTAINING SUBSTITUENTS” (SYNGENTA CROP PROTECTION AG, priority 2021, published 2025).

Key:
Format in all cases: in vivo
[1] = tested on: Chilo suppressalis (Striped Rice Stemborer); test: Activity against Chilo suppressalis (striped rice stemborer), artificial diet in 24-well microtiter plates; details: 144 h, application rate 200 ppm, L2 larvae, 6 days after infestation, in comparison to untreated samples, read-out: control (at least one of mortality, anti-feedant effect, growth inhibition)
Procedure: Example B1: Activity Against Chilo suppressalis (Striped Rice Stemborer)
24-well microtiter plates with artificial diet were treated with aqueous test solutions prepared from 10′000 ppm DMSO stock solutions by pipetting. After drying, the plates were infested with L2 larvae (6-8 per well). The samples were assessed for mortality, anti-feeding effect, and growth inhibition in comparison to untreated samples 6 days after infestation. Control of Chilo suppressalis by a test sample is given when at least one of the categories mortality, anti-feedant effect, and growth inhibition is higher than the untreated sample.

[2] = tested on: Diabrotica Balteata (Corn Root Worm); test: Activity against Diabrotica balteata (corn root worm), sprayed maize sprouts on agar; details: 96 h, application rate 200 ppm, L2 larvae, 4 days after infestation, in comparison to untreated samples, read-out: effect in at least one of the two categories (mortality or growth inhibition)
Procedure: Example B2: Activity Against Diabrotica Balteata (Corn Root Worm)
Maize sprouts placed onto an agar layer in 24-well microtiter plates were treated with aqueous test solutions prepared from 10′000 ppm DMSO stock solutions by spraying. After drying, the plates were infested with L2 larvae (6 to 10 per well). The samples were assessed for mortality and growth inhibition in comparison to untreated samples 4 days after infestation.

[3] = tested on: Euschistus heros (Neotropical Brown Stink Bug); test: Activity against Euschistus heros (neotropical brown stink bug), sprayed soybean leaves on agar; details: 120 h, application rate 200 ppm, N2 nymphs, 5 days after infestation, in comparison to untreated samples, read-out: effect in at least one of the two categories (mortality or growth inhibition)
Procedure: Example B3: Activity Against Euschistus heros (Neotropical Brown Stink Bug)
Soybean leaves on agar in 24-well microtiter plates were sprayed with aqueous test solutions prepared from 10′000 ppm DMSO stock solutions. After drying the leaves were infested with N2 nymphs. The samples were assessed for mortality and growth inhibition in comparison to untreated samples 5 days after infestation.

[4] = tested on: Myzus persicae (Green Peach Aphid); test: Activity against Myzus persicae (green peach aphid), feeding/contact activity, sunflower leaf discs; details: foliar, 144 h, application rate 200 ppm, aphid population of mixed ages, 6 days after infestation
Procedure: Example B4: Activity Against Myzus persicae (Green Peach Aphid) Feeding/Contact Activity
Sunflower leaf discs were placed onto agar in a 24-well microtiter plate and sprayed with aqueous test solutions prepared from 10′000 ppm DMSO stock solutions. After drying, the leaf discs were infested with an aphid population of mixed ages. The samples were assessed for mortality 6 days after infestation.

[5] = tested on: Myzus persicae (Green Peach Aphid); test: Activity against Myzus persicae (green peach aphid), systemic activity, pea seedling roots in test solution; details: 144 h, test rate 24 ppm, aphid population of mixed ages, 6 days after placing seedlings into test solutions
Procedure: Example B5: Activity Against Myzus persicae (Green Peach Aphid) Systemic Activity
Roots of pea seedlings infested with an aphid population of mixed ages were placed directly into aqueous test solutions prepared from 10′000 DMSO stock solutions. The samples were assessed for mortality 6 days after placing seedlings into test solutions.

[6] = tested on: Plutella xylostella (Diamond Back Moth); test: Activity against Plutella xylostella (diamond back moth), artificial diet in 24-well microtiter plates; details: 192 h, application rate 200 ppm, eggs, 8 days after infestation, in comparison to untreated samples, read-out: effect in at least one of the two categories (mortality or growth inhibition)
Procedure: Example B6: Activity Against Plutella xylostella (Diamond Back Moth)
24-well microtiter plates with artificial diet were treated with aqueous test solutions prepared from 10′000 ppm DMSO stock solutions by pipetting. After drying, Plutella eggs were pipetted through a plastic stencil onto a gel blotting paper and the plate was closed with it. The samples were assessed for mortality and growth inhibition in comparison to untreated samples 8 days after infestation. The following compounds gave an effect of at least 80% in at least one of the two categories (mortality or growth inhibition) at an application rate of 200 ppm: P2, P3, P4, P5, P7, P9, P10, P11, P13, P14, P15.

[7] = tested on: Spodoptera littoralis (Egyptian Cotton Leaf Worm); test: Activity against Spodoptera littoralis (Egyptian cotton leaf worm), sprayed cotton leaf discs; details: foliar, 72 h, application rate 200 ppm, five L1 larvae, 3 days after infestation, in comparison to untreated samples, read-out: control (at least one of mortality, anti-feedant effect, growth inhibition)
Procedure: Example B7: Activity Against Spodoptera littoralis (Egyptian Cotton Leaf Worm)
Cotton leaf discs were placed onto agar in 24-well microtiter plates and sprayed with aqueous test solutions prepared from 10′000 ppm DMSO stock solutions. After drying the leaf discs were infested with five L1 larvae. The samples were assessed for mortality, anti-feeding effect, and growth inhibition in comparison to untreated samples 3 days after infestation. Control of Spodoptera littoralis by a test sample is given when at least one of the categories mortality, anti-feedant effect, and growth inhibition is higher than the untreated sample.

CCS(=O)(=O)c1cccnc1-c1coc2cc(C(F)(F)F)ccc2c1=O [P2, 3-(3-ethylsulfonyl-2-pyridyl)-7-(trifluoromethyl)chromen-4-one]
≥ 80%: percent control (mortality, anti-feedant effect or growth inhibition) at 200 ppm [1] | percent control (mortality or growth inhibition) at 200 ppm [2] | percent control (mortality or growth inhibition) at 200 ppm [3] | mortality at 200 ppm [4] | mortality at 24 ppm [5] | effect (mortality or growth inhibition) at 200 ppm [6] | percent control (mortality, anti-feedant effect or growth inhibition) at 200 ppm [7]

CCSc1cc(C2(C#N)CC2)cnc1-c1coc2cc(C(F)(F)F)ccc2c1=O [P3, 1-[5-ethylsulfanyl-6-[4-oxo-7-(trifluoromethyl)chromen-3-yl]-3-pyridyl]cyclopropane-carbonitrile]
≥ 80%: percent control (mortality or growth inhibition) at 200 ppm [2] | percent control (mortality or growth inhibition) at 200 ppm [3] | mortality at 200 ppm [4] | effect (mortality or growth inhibition) at 200 ppm [6] | percent control (mortality, anti-feedant effect or growth inhibition) at 200 ppm [7]

CCS(=O)(=O)c1cc(C2(C#N)CC2)cnc1-c1coc2cc(C(F)(F)F)ccc2c1=O [P4, 1-[5-ethylsulfonyl-6-[4-oxo-7-(trifluoromethyl)chromen-3-yl]-3-pyridyl]cyclopropane-carbonitrile]
≥ 80%: percent control (mortality, anti-feedant effect or growth inhibition) at 200 ppm [1] | percent control (mortality or growth inhibition) at 200 ppm [2] | percent control (mortality or growth inhibition) at 200 ppm [3] | mortality at 200 ppm [4] | mortality at 24 ppm [5] | effect (mortality or growth inhibition) at 200 ppm [6] | percent control (mortality, anti-feedant effect or growth inhibition) at 200 ppm [7]

CCS(=O)(=O)c1cc(C(C)(C)C#N)cnc1-c1coc2cc(C(F)(F)F)ccc2c1=O [P5, 2-[5-ethylsulfonyl-6-[4-oxo-7-(trifluoromethyl)chromen-3-yl]-3-pyridyl]-2-methyl-propane-nitrile]
≥ 80%: percent control (mortality, anti-feedant effect or growth inhibition) at 200 ppm [1] | percent control (mortality or growth inhibition) at 200 ppm [2] | percent control (mortality or growth inhibition) at 200 ppm [3] | mortality at 200 ppm [4] | mortality at 24 ppm [5] | effect (mortality or growth inhibition) at 200 ppm [6] | percent control (mortality, anti-feedant effect or growth inhibition) at 200 ppm [7]

CCS(=O)(=O)c1cc(C2(C#N)CC2)cnc1-c1c(C)oc2cc(C(F)(F)F)ccc2c1=O [P7, 1-[5-ethylsulfonyl-6-[2-methyl-4-oxo-7-(trifluoromethyl)chromen-3-yl]-3-pyridyl] cyclopropane-carbonitrile]
≥ 80%: percent control (mortality, anti-feedant effect or growth inhibition) at 200 ppm [1] | percent control (mortality or growth inhibition) at 200 ppm [2] | percent control (mortality or growth inhibition) at 200 ppm [3] | mortality at 200 ppm [4] | mortality at 24 ppm [5] | effect (mortality or growth inhibition) at 200 ppm [6] | percent control (mortality, anti-feedant effect or growth inhibition) at 200 ppm [7]

CCS(=O)(=O)c1cc(Br)cnc1-c1c(C)oc2cc(C(F)(F)F)ccc2c1=O [P8, 3-(5-bromo-3-ethylsulfonyl-2-pyridyl)-2-methyl-7-(trifluoromethyl) chromen-4-one]
≥ 80%: percent control (mortality, anti-feedant effect or growth inhibition) at 200 ppm [1] | percent control (mortality, anti-feedant effect or growth inhibition) at 200 ppm [7]

CCS(=O)(=O)c1cc(Br)cnc1-c1coc2cc(C(F)(F)F)ccc2c1=O [P9, 3-(5-bromo-3-ethylsulfonyl-2-pyridyl)-7-(trifluoromethyl)-chromen-4-one]
≥ 80%: percent control (mortality, anti-feedant effect or growth inhibition) at 200 ppm [1] | percent control (mortality or growth inhibition) at 200 ppm [2] | effect (mortality or growth inhibition) at 200 ppm [6] | percent control (mortality, anti-feedant effect or growth inhibition) at 200 ppm [7]

CCS(=O)(=O)c1ccc(C2CC2)nc1-c1coc2cc(C(F)(F)F)ccc2c1=O [P10, 3-(6-cyclopropyl-3-ethylsulfonyl-2-pyridyl)-7-(trifluoromethyl) chromen-4-one]
≥ 80%: percent control (mortality, anti-feedant effect or growth inhibition) at 200 ppm [1] | percent control (mortality or growth inhibition) at 200 ppm [2] | mortality at 200 ppm [4] | effect (mortality or growth inhibition) at 200 ppm [6] | percent control (mortality, anti-feedant effect or growth inhibition) at 200 ppm [7]

CCS(=O)(=O)c1cc(C2CC2)cnc1-c1coc2cc(C(F)(F)F)ccc2c1=O [P11, 3-(5-cyclopropyl-3-ethylsulfonyl-2-pyridyl)-7-(trifluoromethyl) chromen-4-one]
≥ 80%: percent control (mortality, anti-feedant effect or growth inhibition) at 200 ppm [1] | percent control (mortality or growth inhibition) at 200 ppm [2] | percent control (mortality or growth inhibition) at 200 ppm [3] | mortality at 200 ppm [4] | mortality at 24 ppm [5] | effect (mortality or growth inhibition) at 200 ppm [6] | percent control (mortality, anti-feedant effect or growth inhibition) at 200 ppm [7]

CCS(=O)(=O)c1cc(C2(C#N)CC2)cnc1-c1coc2cc(OC(F)F)ccc2c1=O [P13, 1-[6-[7-(difluoromethoxy)-4-oxo-chromen-3-yl]-5-ethylsulfonyl-3-pyridyl]-cyclo-propanecarbonitrile]
≥ 80%: percent control (mortality, anti-feedant effect or growth inhibition) at 200 ppm [1] | percent control (mortality or growth inhibition) at 200 ppm [2] | percent control (mortality or growth inhibition) at 200 ppm [3] | mortality at 200 ppm [4] | mortality at 24 ppm [5] | effect (mortality or growth inhibition) at 200 ppm [6] | percent control (mortality, anti-feedant effect or growth inhibition) at 200 ppm [7]

CCS(=O)(=O)c1cc(C2(C#N)CC2)cnc1-c1cn(C)c2cc(C(F)(F)F)ccc2c1=O [P14, 1-[5-ethylsulfonyl-6-[1-methyl-4-oxo-7-(trifluoromethyl)-3-quinolyl]-3-pyridyl]-cyclo-propanecarbonitrile]
≥ 80%: percent control (mortality, anti-feedant effect or growth inhibition) at 200 ppm [1] | percent control (mortality or growth inhibition) at 200 ppm [2] | percent control (mortality or growth inhibition) at 200 ppm [3] | mortality at 200 ppm [4] | mortality at 24 ppm [5] | effect (mortality or growth inhibition) at 200 ppm [6] | percent control (mortality, anti-feedant effect or growth inhibition) at 200 ppm [7]

CCS(=O)(=O)c1cc(C2(C#N)CC2)cnc1-c1coc2cc(OC(F)(F)F)ccc2c1=O [P15, 1-[5-ethylsulfonyl-6-[4-oxo-7-(trifluoromethoxy)chromen-3-yl]-3-pyridyl]-cyclopropane-carbonitrile]
≥ 80%: percent control (mortality, anti-feedant effect or growth inhibition) at 200 ppm [1] | percent control (mortality or growth inhibition) at 200 ppm [2] | percent control (mortality or growth inhibition) at 200 ppm [3] | mortality at 200 ppm [4] | effect (mortality or growth inhibition) at 200 ppm [6] | percent control (mortality, anti-feedant effect or growth inhibition) at 200 ppm [7]

CCS(=O)(=O)c1cc(-c2ccc(F)cc2)cnc1-c1coc2cc(C(F)(F)F)ccc2c1=O [P16, 3-[3-ethylsulfonyl-5-(4-fluorophenyl)-2-pyridyl]-7-(trifluoromethyl)chromen-4-one]
≥ 80%: percent control (mortality, anti-feedant effect or growth inhibition) at 200 ppm [7]
